Assay results from patent US12180192B2, “Modulators of THR-β and methods of use thereof” (ALIGOS THERAPEUTICS, INC., priority 2019, dated 2024).

Legend:
[1] = target: T1, human thyroid receptor beta ligand-binding domain (LBD) (Homo sapiens, UniProt P10828); experiment: TR-FRET thyroid receptor beta coactivator assay (THR biochemical assay, Assay 1); conditions: for EC50: THR-beta, TR-FRET coactivator assay, read-out: Activity category Assay 1 (EC50, THR-beta agonist); for Emax: Table 5, Assay 1, THRβ, read-out: Activity category Assay 1 THRβ (Emax)
T1 construct: purchased Invitrogen
T1 sequence (P10828 217-461 limits assumed): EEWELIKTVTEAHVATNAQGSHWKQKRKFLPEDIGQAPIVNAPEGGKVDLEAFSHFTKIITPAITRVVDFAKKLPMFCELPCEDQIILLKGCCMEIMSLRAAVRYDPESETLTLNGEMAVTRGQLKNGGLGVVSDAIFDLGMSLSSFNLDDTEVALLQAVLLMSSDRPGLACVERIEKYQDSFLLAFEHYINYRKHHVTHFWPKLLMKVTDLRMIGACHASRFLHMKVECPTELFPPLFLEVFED
Description: (§1) The TR-FRET thyroid receptor beta coactivator assay was used with slight, optimized modifications of the manufacturer's protocol (Invitrogen). The assay uses a terbium-labeled anti-GST antibody, a glutathione-S-transferase (GST) tagged human thyroid receptor, beta or alpha, ligand-binding domain (LBD), and a fluorescein labeled SRC2-2 coactivator peptide. […] The energy transfer is detected as an increase in the fluorescence emission of the fluorescein acceptor, and a decrease in the fluorescence emission of the terbium donor. The assay is performed in a 384-well black plate in a final volume of 20 μL. Serial dilution of various test agonists was performed in DMSO (1% final DMSO concentration) and added to the test plate. Thyroid receptor beta LBD is added to the plate at a final concentration of 1 nM, followed by the mixture of the fluorescein labeled SRC2-2 coactivator peptide, and the terbium-labeled anti-GST antibody at final concentrations of 200 nM and 2 nM respectively. The assay is incubated for 1 hr at rt protected from light.

THR beta = target: T2, THR beta (Homo sapiens, UniProt P10828); experiment: HEK293T THR beta/RXR luciferase reporter assay (Assay 2); type: cell-based; conditions: for Emax: HEK-293T, Table 5, Assay 2, THRβ, read-out: Activity category Assay 2 THRβ (Emax); for EC50: THR-beta, HEK293T reporter assay, read-out: Activity category Assay 2 (EC50, THR-beta agonist)
T2 construct: expressed in transfected cells; host or cells: HEK293T (ATCC CRL-3216)
T2 sequence (P10828 1-461): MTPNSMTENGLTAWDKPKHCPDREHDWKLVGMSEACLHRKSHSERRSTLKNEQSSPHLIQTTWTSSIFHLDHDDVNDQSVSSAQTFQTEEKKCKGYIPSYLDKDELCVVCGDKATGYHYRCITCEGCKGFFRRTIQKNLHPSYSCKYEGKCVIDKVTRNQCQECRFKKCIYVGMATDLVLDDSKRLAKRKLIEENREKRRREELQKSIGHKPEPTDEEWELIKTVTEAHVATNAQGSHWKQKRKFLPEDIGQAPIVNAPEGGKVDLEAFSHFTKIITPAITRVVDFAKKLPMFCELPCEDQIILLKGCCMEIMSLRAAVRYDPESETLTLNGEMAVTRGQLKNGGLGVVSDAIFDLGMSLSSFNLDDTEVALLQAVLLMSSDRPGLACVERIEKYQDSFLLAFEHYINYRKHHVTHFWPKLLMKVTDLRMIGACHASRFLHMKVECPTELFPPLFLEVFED
T2 sequence (P19793 1-462 partner): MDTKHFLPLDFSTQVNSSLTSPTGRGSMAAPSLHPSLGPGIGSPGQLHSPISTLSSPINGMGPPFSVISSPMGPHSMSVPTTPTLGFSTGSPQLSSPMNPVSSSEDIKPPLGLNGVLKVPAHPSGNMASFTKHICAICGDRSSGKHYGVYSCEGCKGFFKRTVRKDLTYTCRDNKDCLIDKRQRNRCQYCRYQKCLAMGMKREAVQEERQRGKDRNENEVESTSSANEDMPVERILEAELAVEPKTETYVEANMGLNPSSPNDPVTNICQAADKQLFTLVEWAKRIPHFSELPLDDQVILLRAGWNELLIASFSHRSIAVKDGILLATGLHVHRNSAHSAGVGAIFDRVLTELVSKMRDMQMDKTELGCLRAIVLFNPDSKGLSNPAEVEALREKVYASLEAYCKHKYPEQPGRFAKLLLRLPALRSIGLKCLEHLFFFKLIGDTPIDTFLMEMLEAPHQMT
Method: (§2) HEK293T Reporter THRalpha/Beta/RXR Reporter Assay (Assay 2)
(§3) The purpose of this assay is to evaluate the effect of compounds on the thyroid hormone nuclear receptor pathway in HEK293T cells. To this end, HEK293T cells are transiently transfected with a luciferase reporter under the control of the thyroid response element (TRE), an RXR expression plasmid and either a THR alpha or THR beta expression plasmid. Transfected cells are stimulated with test compounds for 18-24 hours before activation of the thyroid hormone pathway is measured via a luciferase read-out.
(§4) Procedure. […] Ten five-fold dilutions of test compounds are prepared in DMSO and 30 nL are dispensed to the cells. […] Approximately 18-24 h after compound addition, 384 well plates are allowed to adjust to rt, 30 μL One-Glo (Promega catalog #E6120) is added to each well and luminescence is measured on a Perkin Elmer Enspire plate reader. Percent agonism is calculated using the following equation: 100× (sample-negative control)/(positive control-negative control).

THR alpha = target: T3, THR alpha (Homo sapiens, UniProt P10827); experiment: HEK293T THR alpha/RXR luciferase reporter assay (Assay 2); type: cell-based; conditions: Assay 2; for Emax: HEK-293T, Table 5, THRα, read-out: Activity category Assay 2 THRα (Emax); for EC50: Table 4, THR-alpha, read-out: Activity category Assay 2 (EC50, THR-alpha agonist activity)
T3 construct: expressed in transfected cells; host or cells: HEK293T (ATCC CRL-3216)
T3 sequence (P10827 1-410 isoform P10827-2): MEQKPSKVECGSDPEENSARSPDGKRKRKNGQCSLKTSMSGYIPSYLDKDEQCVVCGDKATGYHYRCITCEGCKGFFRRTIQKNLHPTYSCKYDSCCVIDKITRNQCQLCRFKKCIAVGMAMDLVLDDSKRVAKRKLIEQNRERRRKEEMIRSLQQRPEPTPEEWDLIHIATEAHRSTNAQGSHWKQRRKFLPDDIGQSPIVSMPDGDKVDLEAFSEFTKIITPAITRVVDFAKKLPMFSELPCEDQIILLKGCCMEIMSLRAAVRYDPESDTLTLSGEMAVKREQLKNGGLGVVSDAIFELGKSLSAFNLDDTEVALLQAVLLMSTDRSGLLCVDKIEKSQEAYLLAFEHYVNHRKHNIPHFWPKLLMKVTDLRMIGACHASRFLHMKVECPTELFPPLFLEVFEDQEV
T3 sequence (P19793 1-462 partner): T2 sequence (P19793 1-462 partner)
Method: as §2, §3, §4

[2] = target: T4, human thyroid receptor alpha ligand-binding domain (LBD) (Homo sapiens, UniProt P10827); experiment: TR-FRET thyroid receptor alpha coactivator assay (THR biochemical assay, Assay 1); conditions: for EC50: Table 4, THR-alpha, read-out: Activity category Assay 1 (EC50, THR-alpha agonist activity); for Emax: Table 5, THRα, read-out: Activity category Assay 1 THRα (Emax)
T4 construct: purchased Invitrogen
Description: as §1

SMILES	EC50 [1]	Emax [1]	Emax (THR beta)	EC50 (THR beta)	Emax (THR alpha)	EC50 (THR alpha)	EC50 [2]	Emax [2]
Nc1nn(-c2cc(Cl)c(Oc3cc(C4CCC(F)(F)CC4)c(=O)[nH]n3)c(Cl)c2)c(=O)[nH]c1=O [Compound 97]	250 to 1000 nM	< 50%	< 50%	1000 to 10000 nM	< 50%	> 10000 nM	1000 to 25000 nM	< 50%
CO[C@H]1C[C@@H](c2cc(Oc3c(Cl)cc(-n4nc(N)c(=O)[nH]c4=O)cc3Cl)n[nH]c2=O)C1 [Compound 103]	1000 to 25000 nM	< 50%	< 50%	1000 to 10000 nM	< 50%	> 10000 nM	> 25000 nM	< 50%
CC1(C)C(=O)Nc2nnc(Oc3c(Cl)cc(-n4nc(C#N)c(=O)[nH]c4=O)cc3Cl)cc21 [Compound 74, 2-[3,5-dichloro-4-[(5,5-dimethyl-6-oxo-7H-pyrrolo[2,3-c]pyridazin-3-yl)oxy]phenyl]3,5-dioxo-1,2,4-triazine-6-carbonitrile]	1000 to 25000 nM	50 to 75%	< 50%	> 10000 nM	< 50%	> 10000 nM	1000 to 25000 nM	< 50%
CC1(C)CC(c2cc(Oc3c(Cl)cc(-n4nc(N)c(=O)[nH]c4=O)cc3Cl)n[nH]c2=O)CCO1 (centres unmarked) [Compound 76, 6-Amino-2-(3,5-dichloro-4-((5-(2,2-dimethyltetrahydro-2H-pyran-4-yl)-6-oxo-1,6-dihydropyridazin-3-yl)oxy)phenyl)-1,2,4-triazine-3,5(2H, 4H)-dione]	1000 to 25000 nM	< 50%	50 to 75%	250 to 1000 nM	< 50%	> 10000 nM	> 25000 nM	< 50%
Nc1nn(-c2cc(Cl)c(Oc3cc([C@H]4C[C@H](O)C4)c(=O)[nH]n3)c(Cl)c2)c(=O)[nH]c1=O [Compound 88-A, 6-Amino-2-[3,5-dichloro-4-([6-oxo-5-[(1r,3r)-3-hydroxycyclobutyl]-1H-pyridazin-3-yl]oxy)phenyl]-4H-1,2,4-triazine-3,5-dione]	1000 to 25000 nM	< 50%	< 50%	> 10000 nM	> 75%	> 10000 nM	> 25000 nM	< 50%
CC(C)c1c[nH]c2nnc(Oc3c(Cl)cc(-n4nc(N)c(=O)[nH]c4=O)cc3Cl)cc12 [Compound 53, 6-amino-2-[3,5-dichloro-4-([5-isopropyl-7H-pyrrolo[2,3-c]pyridazin-3-yl]oxy)phenyl]-4H-1,2,4-triazine-3,5-dione]	< 50 nM	50 to 75%	> 75%	250 to 1000 nM	> 75%	1000 to 10000 nM	250 to 1000 nM	< 50%

The next lines start with the values.

EC50 [1]	Emax [1]	Emax (THR beta)	EC50 (THR beta)	Emax (THR alpha)	EC50 (THR alpha)	EC50 [2]	Emax [2]	SMILES
< 50 nM	< 50%	50 to 75%	50 to 250 nM	< 50%	250 to 1000 nM	250 to 1000 nM	< 50%	Cc1cccc(-c2cc(Oc3c(Cl)cc(-n4nc(N)c(=O)[nH]c4=O)cc3Cl)n[nH]c2=O)c1F [Compound 64, 6-amino-2-(3,5-dichloro-4-[[5-(2-fluoro-3-methylphenyl)-6-oxo-1H-pyridazin-3-yl]oxy]phenyl)-4H-1,2,4-triazine-3,5-dione]
< 50 nM	< 50%	> 75%	–	50 to 75%	< 50 nM	< 50 nM	< 50%	Nc1nn(-c2cc(Cl)c(Oc3ccc4c(c3)C3(CCCCC3)C(=O)N4)c(Cl)c2)c(=O)[nH]c1=O [Compound 85]
< 50 nM	< 50%	> 75%	50 to 250 nM	50 to 75%	50 to 250 nM	250 to 1000 nM	< 50%	Cc1cc(-n2ncc(=O)[nH]c2=O)cc(C)c1Cc1cnc2[nH]cc(C(C)C)c2n1 [Compound 56, 2-(4-((7-isopropyl-5H-pyrrolo[2,3-b]pyrazin-2-yl)methyl)-3,5-dimethylphenyl)-1,2,4-triazine-3,5(2H,4H)-dione]
< 50 nM	< 50%	50 to 75%	250 to 1000 nM	< 50%	250 to 1000 nM	50 to 250 nM	< 50%	C=C(C)c1cc(Oc2c(Cl)cc(-n3nc(N)c(=O)[nH]c3=O)cc2Cl)n[nH]c1=O [Compound 60-A, 6-amino-2-(3,5-dichloro-4-[[6-oxo-5-(prop-1-en-2-yl)-1H-pyridazin-3-yl]oxy]phenyl)-4H-1,2,4-triazine-3,5-dione]
< 50 nM	50 to 75%	> 75%	50 to 250 nM	> 75%	250 to 1000 nM	< 50 nM	50 to 75%	N#Cc1nn(-c2cc(Cl)c(Oc3ccc4[nH]cc(CC5CC5)c4c3)c(Cl)c2)c(=O)[nH]c1=O [Compound 50, 2-(3,5-dichloro-4-[[3-(cyclopropylmethyl)-1H-indol-5-yl]oxy]phenyl)-3,5-dioxo-4H-1,2,4-triazine-6-carbonitrile]
< 50 nM	< 50%	> 75%	1000 to 10000 nM	> 75%	1000 to 10000 nM	< 50 nM	< 50%	N#Cc1nn(-c2cc(Cl)c(Oc3ccc4[nH]ccc4c3)c(Cl)c2)c(=O)[nH]c1=O [Compound 47, 2-[3,5-dichloro-4-(1H-indol-5-yloxy)phenyl]-3,5-dioxo-4H-1,2,4-triazine-6-carbonitrile]
